According to patent US10221427B2 (priority 2014, dated 2019):

How the values were obtained:
[1] = system: ENST1 (TaENST1-4A); design: species or system wheat cv. CM82036; conditions: in vivo
[2] = system: Arabidopsis root hair; assay: Root hair assay (apoptosis-like programmed cell death); type: cell-based, Arabidopsis thaliana; conditions: 65 μM SA, one day post treatment
Protocol: The root hair assay was conducted as previously described (Kacprzyk et al. 2014). Briefly, five days old seedling were treated with 65 μM SA solution and incubated at 22° C. in constant light until scoring. The Apostosis-Like Program Cell Death (AL-PCD) was assessed by scoring root hair viability with a fluorescein diacetate (FDA) staining and examination under the microscope of the emission of the fluorescein when excited at the wavelength 485 nm. Root hairs negative for FDA staining were examined further and scored as programmed cell death (PCD) when having a condensed cell content and protoplast retracted away from the cell wall (as opposed to necrotic cells which have no retracted cytoplasm and therefore no distinguishable morphology compared to living cells under the light microscope). The percentage for each category was calculated as a percentage of the total number of root hair scored (about 100) averaged over at least three replicates.

CC1=C[C@H]2O[C@@H]3[C@H](O)C[C@](C)([C@@]2(CO)[C@H](O)C1=O)[C@]31CO1 [DON, deoxynivalenol]
ENST1 expression in tissues treated with the toxin [1]: high expression
ENST1 induction by DON [1]: 43 fold

O=C(O)c1ccccc1O [SA, salicylic acid]
programmed cell death (PCD) in root hairs after SA treatment [2]: significant inductions of PCD
